What was measured:
Assay in all cases: Test D preemergence
Assay type in all cases: in vivo
Settings in all cases: scale 0 to 100
[1] = test system: radish, wild (wild radish, Raphanus raphanistrum)
Source text: (§1) Seeds of plant species selected from bluegrass (annual bluegrass, Poa annua), blackgrass (Alopecurus myosuroides), canarygrass (littleseed canarygrass, Phalaris minor), chickweed (common chickweed, Stellaria media), Galium (catchweed bedstraw, Galium aparine), bromegrass, downy (downy bromegrass, Bromus tectorum), field poppy (Papaver rhoeas), field violet (Viola arvensis), foxtail, green (green foxtail, Setaria viridis), deadnettle (henbit deadnettle, Lamium amplexicaule), ryegrass, Italian (Italian ryegrass, Lolium multiflorum), Kochia (Kochia scoparia), lambsquarters (Chenopodium album), oilseed rape (Brassica napus), pigweed (Amaranthus retroflexus), chamomile (scentless chamomile, Matricaria inodora), Russian thistle (Salsola kali), speedwell (bird's-eye speedwell, Veronica persica), barley, spring (spring barley, Hordeum vulgare), wheat, spring (spring wheat, Triticum aestivum), buckwheat, wild (wild buckwheat, Polygonum convolvulus), mustard, wild (wild mustard, Sinapis arvensis), oat, wild (wild oat, Avena fatua), radish, wild (wild radish, Raphanus raphanistrum), windgrass (Apera spica-venti), barley, winter (winter barley Hordeum vulgare), and wheat, winter (winter wheat, Triticum aestivum) were planted into a silt loam soil and treated preemergence with test chemicals formulated in a non-phytotoxic solvent mixture which included a surfactant.
(§2) Treated plants and controls were maintained in a controlled growth environment approximately 21 d after which time all species were compared to controls and visually evaluated. Plant response ratings, summarized in Table D, are based on a scale of 0 to 100 where 0 is no effect and 100 is complete control. A dash (-) response means no test result.

[2] = test system: pigweed (Amaranthus retroflexus)
Source text: as §1, §2

[3] = test system: foxtail, green (green foxtail, Setaria viridis)
Source text: as §1, §2

[4] = test system: canarygrass (littleseed canarygrass, Phalaris minor)
Source text: as §1, §2

[5] = test system: bromegrass, downy (downy bromegrass, Bromus tectorum)
Source text: as §1, §2

[6] = test system: field violet (Viola arvensis)
Source text: as §1, §2

[7] = test system: speedwell (bird's-eye speedwell, Veronica persica)
Source text: as §1, §2

[8] = test system: chamomile (scentless chamomile, Matricaria inodora)
Source text: as §1, §2

[9] = test system: barley, winter (winter barley Hordeum vulgare)
Source text: as §1, §2

[10] = test system: barley, spring (spring barley, Hordeum vulgare)
Source text: as §1, §2

[11] = test system: mustard, wild (wild mustard, Sinapis arvensis)
Source text: as §1, §2

[12] = test system: buckwheat, wild (wild buckwheat, Polygonum convolvulus)
Source text: as §1, §2

[13] = test system: ryegrass, Italian (Italian ryegrass, Lolium multiflorum)
Source text: as §1, §2

[14] = test system: bluegrass (annual bluegrass, Poa annua)
Source text: as §1, §2

[15] = test system: field poppy (Papaver rhoeas)
Source text: as §1, §2

[16] = test system: blackgrass (Alopecurus myosuroides)
Source text: as §1, §2

[17] = test system: chickweed (common chickweed, Stellaria media)
Source text: as §1, §2

[18] = test system: deadnettle (henbit deadnettle, Lamium amplexicaule)
Source text: as §1, §2

[19] = test system: Galium (catchweed bedstraw, Galium aparine)
Source text: as §1, §2

[20] = test system: lambsquarters (Chenopodium album)
Source text: as §1, §2

[21] = test system: wheat, winter (winter wheat, Triticum aestivum)
Source text: as §1, §2

[22] = test system: oilseed rape (Brassica napus)
Source text: as §1, §2

CN1C[C@H](c2ccc(C(F)(F)F)cc2)[C@@H](C(=O)Nc2cccc(F)c2F)C1=O [Compound 623, (3S,4S)—N-(2,3-difluorophenyl)-1-methyl-2-oxo-4-[4-(trifluoromethyl)phenyl]-3-pyrrolidinecarboxamide]
Plant response rating: Radish, Wild ([1]; 31 g ai/ha): 0
Plant response rating: Radish, Wild ([1]; 62 g ai/ha): 15
Plant response rating: Radish, Wild ([1]; 125 g ai/ha): 50
Plant response rating: Radish, Wild ([1]; 250 g ai/ha): 85
Plant response rating: Pigweed ([2]; 31 g ai/ha): 75
Plant response rating: Pigweed ([2]; 62 g ai/ha): 95
Plant response rating: Pigweed ([2]; 125 g ai/ha): 95
Plant response rating: Pigweed ([2]; 250 g ai/ha): 100
Plant response rating: Foxtail, Green ([3]; 31 g ai/ha): 95
Plant response rating: Foxtail, Green ([3]; 62 g ai/ha): 98
Plant response rating: Foxtail, Green ([3]; 125 g ai/ha): 98
Plant response rating: Foxtail, Green ([3]; 250 g ai/ha): 98
Plant response rating: Canarygrass ([4]; 31 g ai/ha): 25
Plant response rating: Canarygrass ([4]; 62 g ai/ha): 70
Plant response rating: Canarygrass ([4]; 125 g ai/ha): 85
Plant response rating: Canarygrass ([4]; 250 g ai/ha): 85
Plant response rating: Bromegrass, Downy ([5]; 31 g ai/ha): 15
Plant response rating: Bromegrass, Downy ([5]; 62 g ai/ha): 30
Plant response rating: Bromegrass, Downy ([5]; 125 g ai/ha): 40
Plant response rating: Bromegrass, Downy ([5]; 250 g ai/ha): 65
Plant response rating: Field Violet ([6]; 31 g ai/ha): 0
Plant response rating: Field Violet ([6]; 62 g ai/ha): 0
Plant response rating: Field Violet ([6]; 125 g ai/ha): 10
Plant response rating: Field Violet ([6]; 250 g ai/ha): 15
Plant response rating: Speedwell ([7]; 31 g ai/ha): 95
Plant response rating: Speedwell ([7]; 62 g ai/ha): 100
Plant response rating: Speedwell ([7]; 125 g ai/ha): 100
Plant response rating: Speedwell ([7]; 250 g ai/ha): 90
Plant response rating: Chamomile ([8]; 31 g ai/ha): 20
Plant response rating: Chamomile ([8]; 62 g ai/ha): 80
Plant response rating: Chamomile ([8]; 125 g ai/ha): 85
Plant response rating: Chamomile ([8]; 250 g ai/ha): 100
Plant response rating: Barley, Winter ([9]; 31 g ai/ha): 5
Plant response rating: Barley, Winter ([9]; 62 g ai/ha): 10
Plant response rating: Barley, Winter ([9]; 125 g ai/ha): 40
Plant response rating: Barley, Winter ([9]; 250 g ai/ha): 65
Plant response rating: Barley, Spring ([10]; 31 g ai/ha): 5
Plant response rating: Barley, Spring ([10]; 62 g ai/ha): 15
Plant response rating: Barley, Spring ([10]; 125 g ai/ha): 35
Plant response rating: Barley, Spring ([10]; 250 g ai/ha): 65
Plant response rating: Mustard, Wild ([11]; 31 g ai/ha): 10
Plant response rating: Mustard, Wild ([11]; 62 g ai/ha): 15
Plant response rating: Mustard, Wild ([11]; 125 g ai/ha): 85
Plant response rating: Mustard, Wild ([11]; 250 g ai/ha): 85
Plant response rating: Buckwheat, Wild ([12]; 31 g ai/ha): 0
Plant response rating: Buckwheat, Wild ([12]; 62 g ai/ha): 10
Plant response rating: Buckwheat, Wild ([12]; 125 g ai/ha): 15
Plant response rating: Buckwheat, Wild ([12]; 250 g ai/ha): 45
Plant response rating: Ryegrass, Italian ([13]; 31 g ai/ha): 0
Plant response rating: Ryegrass, Italian ([13]; 62 g ai/ha): 15
Plant response rating: Ryegrass, Italian ([13]; 125 g ai/ha): 40
Plant response rating: Ryegrass, Italian ([13]; 250 g ai/ha): 65
Plant response rating: Bluegrass ([14]; 31 g ai/ha): 25
Plant response rating: Bluegrass ([14]; 62 g ai/ha): 65
Plant response rating: Bluegrass ([14]; 125 g ai/ha): 70
Plant response rating: Bluegrass ([14]; 250 g ai/ha): 85
Plant response rating: Field Poppy ([15]; 31 g ai/ha): 80
Plant response rating: Field Poppy ([15]; 62 g ai/ha): 80
Plant response rating: Field Poppy ([15]; 125 g ai/ha): 85
Plant response rating: Field Poppy ([15]; 250 g ai/ha): 100
Plant response rating: Blackgrass ([16]; 31 g ai/ha): 30
Plant response rating: Blackgrass ([16]; 62 g ai/ha): 40
Plant response rating: Blackgrass ([16]; 125 g ai/ha): 45
Plant response rating: Blackgrass ([16]; 250 g ai/ha): 70
Plant response rating: Chickweed ([17]; 31 g ai/ha): 65
Plant response rating: Chickweed ([17]; 62 g ai/ha): 95
Plant response rating: Chickweed ([17]; 125 g ai/ha): 95
Plant response rating: Chickweed ([17]; 250 g ai/ha): 95
Plant response rating: Deadnettle ([18]; 31 g ai/ha): 25
Plant response rating: Deadnettle ([18]; 62 g ai/ha): 65
Plant response rating: Deadnettle ([18]; 125 g ai/ha): 75
Plant response rating: Deadnettle ([18]; 250 g ai/ha): 75
Plant response rating: Galium ([19]; 31 g ai/ha): 0
Plant response rating: Galium ([19]; 62 g ai/ha): 5
Plant response rating: Galium ([19]; 125 g ai/ha): 15
Plant response rating: Galium ([19]; 250 g ai/ha): 80
Plant response rating: Lambsquarters ([20]; 31 g ai/ha): 55
Plant response rating: Lambsquarters ([20]; 62 g ai/ha): 60
Plant response rating: Lambsquarters ([20]; 125 g ai/ha): 80
Plant response rating: Lambsquarters ([20]; 250 g ai/ha): 95
Plant response rating: Wheat, Winter ([21]; 31 g ai/ha): 5
Plant response rating: Wheat, Winter ([21]; 62 g ai/ha): 20
Plant response rating: Wheat, Winter ([21]; 125 g ai/ha): 20
Plant response rating: Wheat, Winter ([21]; 250 g ai/ha): 40
Plant response rating: Oilseed Rape ([22]; 31 g ai/ha): 15
Plant response rating: Oilseed Rape ([22]; 62 g ai/ha): 20
Plant response rating: Oilseed Rape ([22]; 125 g ai/ha): 25
Plant response rating: Oilseed Rape ([22]; 250 g ai/ha): 75

Source: patent US12077503B2, “Substituted cyclic amides and their use as herbicides” (FMC CORPORATION, priority 2015, dated 2024)
